Assay [1] addresses His-Brd2(60-472) (Homo sapiens (Human), UniProt P25440). Nature of the assay: TR-FRET in-vitro binding assay for BRD2. To be noted: biochemical. In outline:
(§1)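 His-tagged BRD2(60-472), BRD3(20-477) or BRD4(44-477), 45 nM in dispensing solution, with 60 nM tetra-acetylated histone H4 peptide (AcK5/8/12/16) in dispensing solution; HEPES pH 7.5, 50 mM NaCl, 0.1% BSA, 30 °C, 35 min. Eu-anti-His6 antibody plus streptavidin-APC added for TR-FRET read-out; 8-point compound dilutions.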
A general note: In TR-FRET formats the signal depends on donor and acceptor labels being close together.

Assay [2] has as its system K-562 cells. Nature of the assay: Cell growth inhibition assay (CellTiter-Glo), K-562. The class given is cell-based, human. The conditions noted are these: Homo sapiens, K562, read-out: K-562 TGI. In outline: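 Compounds tested as 3-fold dilution series starting at 10 μM (DMSO 0.1% final); viability read by cellular ATP (CTG luminescence) at 37° C. Signal corrected for no-cell background and a day-0 plate, scaled −100% to 100%; four-parameter fitting gives IC50 and TGI.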

In assay [3] the target is His-Brd3(20-477) (Homo sapiens (Human), UniProt Q15059). Nature of the assay: TR-FRET in-vitro binding assay for BRD3. The conditions noted are these: biochemical. In outline:
as §1

His-Brd2(60-472), sequence (P25440 60-472): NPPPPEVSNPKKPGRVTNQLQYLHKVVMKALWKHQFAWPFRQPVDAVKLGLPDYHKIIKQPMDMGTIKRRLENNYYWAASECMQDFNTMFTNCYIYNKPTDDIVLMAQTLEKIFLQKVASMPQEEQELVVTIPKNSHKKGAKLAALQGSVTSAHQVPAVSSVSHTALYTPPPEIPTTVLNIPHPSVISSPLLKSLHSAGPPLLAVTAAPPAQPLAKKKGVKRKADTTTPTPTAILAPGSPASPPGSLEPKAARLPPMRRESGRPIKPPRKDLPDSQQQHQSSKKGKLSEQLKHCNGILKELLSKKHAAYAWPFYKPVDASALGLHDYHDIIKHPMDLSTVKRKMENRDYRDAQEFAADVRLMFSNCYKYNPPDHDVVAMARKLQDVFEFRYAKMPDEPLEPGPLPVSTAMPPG
His-Brd3(20-477), sequence (Q15059 20-477): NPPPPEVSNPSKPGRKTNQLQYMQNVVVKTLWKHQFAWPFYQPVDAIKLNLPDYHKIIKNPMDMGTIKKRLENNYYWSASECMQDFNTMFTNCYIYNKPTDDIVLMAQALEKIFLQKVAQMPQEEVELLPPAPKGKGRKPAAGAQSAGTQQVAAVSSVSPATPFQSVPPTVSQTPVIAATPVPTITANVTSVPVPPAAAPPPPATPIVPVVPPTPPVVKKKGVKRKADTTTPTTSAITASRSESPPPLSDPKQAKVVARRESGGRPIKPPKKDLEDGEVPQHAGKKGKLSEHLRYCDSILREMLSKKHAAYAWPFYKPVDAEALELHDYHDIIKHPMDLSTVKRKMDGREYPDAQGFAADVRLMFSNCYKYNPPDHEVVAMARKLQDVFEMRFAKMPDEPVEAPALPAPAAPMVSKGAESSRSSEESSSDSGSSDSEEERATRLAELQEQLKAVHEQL

The IC50 is the concentration at which inhibition is half-maximal. A lower IC50 goes with higher potency. In the case of `CCc1nn(C2CC2)c2c1C(c1ccc(Cl)cc1)N(c1cc(OC)c3nnc(C)n3c1)C2=O` (stereo not drawn) [Example 84, 4-(4-chlorophenyl)-1-cyclopropyl-3-ethyl-5-(8-methoxy-3-methyl-[1,2,4]triazolo[4,3-a]pyridin-6-yl)-4,5-dihydropyrrolo[3,4-c]pyrazol-6(1H)-one], the IC50 amounted to 37 nM in assay [1] and 61.5 nM in assay [3]. In addition, in assay [2], the IC (total growth inhibition) was greater than 10 µM.
For the molecule `CCc1nn(CCOC)c2c1C(c1ccc(Cl)cc1)N(c1cc(C)c3nnc(C)n3c1)C2=O` (stereo not drawn) [Example 87, 4-(4-chlorophenyl)-5-(3,8-dimethyl-[1,2,4]triazolo[4,3-a]pyridin-6-yl)-3-ethyl-1-(2-methoxyethyl)-4,5-dihydropyrrolo[3,4-c]pyrazol-6(1H)-one], the IC50 came to 72 nM in assay [1] and 59 nM in assay [3]. In assay [2], the IC (total growth inhibition) was greater than 10 µM.
On to `CCc1nn(-c2ccnn2C)c2c1C(c1ccc(Cl)cc1)N(c1cc(C)c(=O)n(C)c1)C2=O` (stereo not drawn) [Example 89, 4-(4-chlorophenyl)-5-(1,5-dimethyl-6-oxo-1,6-dihydropyridin-3-yl)-3-ethyl-1-(1-methyl-1H-pyrazol-5-yl)-4,5-dihydropyrrolo[3,4-c]pyrazol-6(1H)-one], for which the results for the IC50 in assay [1] and in assay [3] were 60 nM and 57 nM, respectively. The IC (total growth inhibition) in assay [2] is greater than 10 µM.
`Cc1nn(-c2ccnn2C)c2c1C(c1ccc(Cl)cc1)N(c1cc(C)c3nnc(C)n3c1)C2=O` (stereo not drawn) [Example 90, 4-(4-chlorophenyl)-5-(3,8-dimethyl-[1,2,4]triazolo[4,3-a]pyridin-6-yl)-3-methyl-1-(1-methyl-1H-pyrazol-5-yl)-4,5-dihydropyrrolo[3,4-c]pyrazol-6(1H)-one]: the IC50 in assay [1] and in assay [3] was 28 nM throughout. In assay [2], the IC (total growth inhibition) is greater than 10 µM.
Regarding `Cc1cc(N2C(=O)c3nn(C4CC4)c(C)c3C2c2ccc(Cl)cc2)cn2c(C)nnc12` (stereo not drawn) [Example 93, 4-(4-chlorophenyl)-2-cyclopropyl-5-(3,8-dimethyl-[1,2,4]triazolo[4,3-a]pyridin-6-yl)-3-methyl-4,5-dihydropyrrolo[3,4-c]pyrazol-6(2H)-one], the IC50 in assay [1] was 45 nM; in assay [3] it was 31 nM. Besides, the IC (total growth inhibition) in assay [2] is greater than 10 µM.
Take `Cc1nn(C2CCC2)c2c1C(c1ccc(Cl)cc1)N(c1cc(C)c(=O)n(C)c1)C2=O` (stereo not drawn) [Example 94, 4-(4-chlorophenyl)-1-cyclobutyl-5-(1,5-dimethyl-6-oxo-1,6-dihydropyridin-3-yl)-3-methyl-4,5-dihydropyrrolo[3,4-c]pyrazol-6(1H)-one]: the IC50 in assay [1] worked out at 25 nM; in assay [3] it was 28 nM. In addition, the IC (total growth inhibition) in assay [2] is greater than 10 µM.
In the same order, the values of `Cc1nn(C2CC2)c2c1C(c1ccc(OC(F)(F)F)cc1)N(c1cc(C)c(=O)n(C)c1)C2=O` (stereo not drawn) [Example 95, 1-cyclopropyl-5-(1,5-dimethyl-6-oxo-1,6-dihydropyridin-3-yl)-3-methyl-4-(4-(trifluoromethoxy)phenyl)-4,5-dihydropyrrolo[3,4-c]pyrazol-6(1H)-one] are 63 nM, 73 nM and greater than 10 µM.
For the molecule `Cc1nn(C2CC2)c2c1C(c1cccc(C(F)(F)F)c1)N(c1cc(C)c(=O)n(C)c1)C2=O` (stereo not drawn) [Example 96, 1-cyclopropyl-5-(1,5-dimethyl-6-oxo-1,6-dihydropyridin-3-yl)-3-methyl-4-(3-(trifluoromethyl)phenyl)-4,5-dihydropyrrolo[3,4-c]pyrazol-6(1H)-one], the IC50 in assay [1] came out at 660 nM; in assay [3] it was 800 nM. Further, the IC (total growth inhibition) in assay [2] is greater than 10 µM.
On the same counts, the results for `Cc1nn(C2CC2)c2c1C(c1ccc(C(F)(F)F)cc1)N(c1cc(C)c(=O)n(C)c1)C2=O` (stereo not drawn) [Example 97, 1-cyclopropyl-5-(1,5-dimethyl-6-oxo-1,6-dihydropyridin-3-yl)-3-methyl-4-(4-(trifluoromethyl)phenyl)-4,5-dihydropyrrolo[3,4-c]pyrazol-6(1H)-one] are 88 nM, 120 nM and greater than 10 µM.
On the same counts, the results for `COc1ncc(-n2nc(C)c3c2C(=O)N(c2cc(C)c(=O)n(C)c2)[C@H]3c2ccc(Cl)cc2)c(OC)n1` [Example 99, (S)-4-(4-chlorophenyl)-1-(2,4-dimethoxypyrimidin-5-yl)-5-(1,5-dimethyl-6-oxo-1,6-dihydropyridin-3-yl)-3-methyl-4,5-dihydropyrrolo[3,4-c]pyrazol-6(1H)-one] are 6000 nM, 7600 nM and greater than 10 µM.
In the same order, the values of `COc1ncc(-n2nc(C)c3c2C(=O)N(c2cc(C)c(=O)n(C)c2)[C@@H]3c2ccc(Cl)cc2)c(OC)n1` [Example 100, (R)-4-(4-chlorophenyl)-1-(2,4-dimethoxypyrimidin-5-yl)-5-(1,5-dimethyl-6-oxo-1,6-dihydropyridin-3-yl)-3-methyl-4,5-dihydropyrrolo[3,4-c]pyrazol-6(1H)-one] are 28 nM, 27 nM and greater than 10 µM.
With `COc1ncccc1-n1nc(C)c2c1C(=O)N(c1cc(C)c3nnc(C)n3c1)C2c1ccc(Cl)cc1` (stereo not drawn) [Example 101, 4-(4-chlorophenyl)-5-(3,8-dimethyl-[1,2,4]triazolo[4,3-a]pyridin-6-yl)-1-(2-methoxypyridin-3-yl)-3-methyl-4,5-dihydropyrrolo[3,4-c]pyrazol-6(1H)-one], the IC50 in assay [1] came to 43 nM; in assay [3] it was 36 nM. In addition, in assay [2], the IC (total growth inhibition) was greater than 10 µM.
With `Cc1nn(C2CC2)c2c1C(c1ccc(Cl)cc1)N(c1ccc3nnn(C)c3n1)C2=O` (stereo not drawn) [Example 102, 4-(4-chlorophenyl)-1-cyclopropyl-3-methyl-5-(3-methyl-3H-[1,2,3]triazolo[4,5-b]-pyridin-5-yl)-4,5-dihydropyrrolo[3,4-c]pyrazol-6(1H)-one], the IC50 was determined as 72 nM in assay [1] and 55 nM in assay [3]. The IC (total growth inhibition) in assay [2] is greater than 10 µM.
On the same counts, the results for `Cc1nn(C(C)C)c2c1[C@H](c1ccc(Cl)cc1)N(c1cc(C)c(=O)n(C)c1)C2=O` [Example 103, (S)-4-(4-chlorophenyl)-5-(1,5-dimethyl-6-oxo-1,6-dihydropyridin-3-yl)-1-isopropyl-3-methyl-4,5-dihydropyrrolo[3,4-c]pyrazol-6(1H)-one] are 5300 nM, 6100 nM and greater than 10 µM.
On the same counts, the results for `Cc1nn(C(C)C)c2c1[C@@H](c1ccc(Cl)cc1)N(c1cc(C)c(=O)n(C)c1)C2=O` [Example 104, (R)-4-(4-chlorophenyl)-5-(1,5-dimethyl-6-oxo-1,6-dihydropyridin-3-yl)-1-isopropyl-3-methyl-4,5-dihydropyrrolo[3,4-c]pyrazol-6(1H)-one] are 14 nM, 15 nM and greater than 10 µM.
On to `CCc1nn(C)c2c1C(c1ccc(Cl)cc1)N(c1cc(OC)c3nnc(C)n3c1)C2=O` (stereo not drawn) [Example 105, 4-(4-chlorophenol)-3-ethyl-5-(8-methoxy-3-methyl-[1,2,4]triazolo[4,3-a]pyridin-6-yl)-1-methyl-4,5-dihydropyrrolo[3,4-c]pyrazol-6(1H)-one], for which the values for the IC50 in assay [1] and in assay [3] were 130 nM and 150 nM, respectively. Moreover, in assay [2], the IC (total growth inhibition) was greater than 10 µM.
In the same order, the values of `CCc1nn(C2CC2)c2c1[C@H](c1ccc(Cl)cc1)N(c1cc(C)c3nnc(C)n3c1)C2=O` [Example 106, (S)-4-(4-chlorophenyl)-1-cyclopropyl-5-(3,8-dimethyl-[1,2,4]triazolo[4,3-a]pyridin-6-yl)-3-ethyl-4,5-dihydropyrrolo[3,4-c]pyrazol-6(1H)-one] are 2900 nM, 4400 nM and greater than 10 µM.
In the same order, the values of `CCc1nn(C2CC2)c2c1[C@@H](c1ccc(Cl)cc1)N(c1cc(C)c3nnc(C)n3c1)C2=O` [Example 107, (R)-4-(4-chlorophenyl)-1-cyclopropyl-5-(3,8-dimethyl-[1,2,4]triazolo[4,3-a]pyridin-6-yl)-3-ethyl-4,5-dihydropyrrolo[3,4-c]pyrazol-6(1H)-one] are 14 nM, 13 nM and greater than 10 µM.
On the same counts, the results for `CCc1nn(CCOCC(F)(F)F)c2c1C(c1ccc(Cl)cc1)N(c1cc(OC)c3nnc(C)n3c1)C2=O` (stereo not drawn) [Example 108, 4-(4-chlorophenyl)-3-ethyl-5-(8-methoxy-3-methyl-[1,2,4]triazolo[4,3-a]pyridin-6-yl)-1-(2-(2,2,2-trifluoroethoxy)ethyl)-4,5-dihydropyrrolo[3,4-c]pyrazol-6(1H)-one] are 210 nM, 280 nM and greater than 10 µM.
Take `COc1ncccc1-n1nc(C)c2c1C(=O)N(c1cc(C)c3nnn(C)c3n1)C2c1ccc(Cl)cc1` (stereo not drawn) [Example 109, 4-(4-chlorophenyl)-5-(3,7-dimethyl-3H-[1,2,3]triazolo[4,5-b]pyridin-5-yl)-1-(2-methoxypyridin-3-yl)-3-methyl-4,5-dihydropyrrolo[3,4-c]pyrazol-6(1H)-one]: the IC50 in assay [1] and in assay [3] was 27 nM in each case. Further, in assay [2], the IC (total growth inhibition) was greater than 10 µM.
As to `Cc1nn(C2CC2)c2c1C(c1ccc(Cl)cc1)N(c1cc(C)c3nnn(C)c3n1)C2=O` (stereo not drawn) [Example 110, 4-(4-chlorophenyl)-1-cyclopropyl-5-(3,7-dimethyl-3H-[1,2,3]triazolo[4,5-b]pyridin-5-yl)-3-methyl-4,5-dihydropyrrolo[3,4-c]pyrazol-6(1H)-one], the figures for the 50% inhibitory concentration (IC50) in assay [1] and in assay [3] were 18 nM and 14 nM, respectively. The IC (total growth inhibition) in assay [2] is greater than 10 µM.
